Results reported in patent US20210401833A1 (IMBRIA PHARMACEUTICALS, INC., priority 2020, published 2021).
In brackets after ≈: the same amount, converted by molar mass. Like-named read-outs stand apart in the source and are kept apart here. One block for each compound: values may come before it.

Columns and labels:
[1] = 28-day dog study (nonclinical toxicology, NOAEL); assay type: in vivo; details: for AUC(0-t): po, 200 mg/kg/day
Procedure: Based on the nonclinical toxicology data, it was considered that subjects in this clinical study were not at unreasonable risk of adverse effects. […] For a 60-kg individual, the NOAEL dose would be 6480 mg. With a 10-fold safety factor applied, this would allow for a maximum recommended starting dose (MRSD) of 648 mg/day. 7,8 The planned starting dose in the current Phase 1 study was 50 mg, equivalent to 0.83 mg/kg/day for a 60-kg subject. This starting dose is less than 10% of the MRSD determined from the dog NOAEL and less than 1% of the dog NOAEL
The relevant animal study was the 28-day dog study where the NOAEL for IMB-1018972 was 200 mg/kg/day.

clinical = details: human, in vivo; for AUC0-t higher after the 8-hour MR formulation than after the 4-hour MR formulation / AUC0-t lower after the 8-hour MR formulation than after the 4-hour MR formulation / Tmax: po
[2] = human, in vivo, 150 mg
[3] = pH stability profile of a 1 mg/mL solution of CV-8972 at 23° C.; assay type: physicochemical; details: for 1st order Kobs / % lost in 25 hrs / Amt. remaining / T5% / T10%: 1 mg/mL, 23° C.
Procedure: The pH stability profile is summarized and shown in Table 2 for a 1 mg/mL solution of CV-8972 at 23° C.
The hydrolysis proceeds via the first step shown in FIG. 1, as Nicotinic acid and CV-8814 are the only decomposition products generated. The optimal pH for solution stability appears to be around pH 5-5.1 for a 1 mg/mL solution with acid-catalyzed hydrolysis increasing at pH values less than 5.0 and base-catalyzed hydrolysis increasing above pH 5.0.

[4] = Phase 1 first-in-human study, overall safety; assay type: in vivo; details: after administration as the MR formulations
Procedure: Safety and tolerability were assessed through AEs, clinical laboratory, vital signs, ECGs, continuous cardiac monitoring (telemetry), and physical examination findings, and any other parameter that was relevant for safety assessment.

[5] = in vitro CaCo2 permeability; assay type: in vitro ADME; details: human, Caco-2
CaCo2 = experiment: in vitro CaCo2 permeability; assay type: in vitro ADME
[6] = Phase 1 first-in-human study, single-dose MR part, safety and tolerability; assay type: in vivo
[7] = solution stability (decomposition kinetics) in simulated GI media at 37° C. and 0.2 mg/mL, HPLC; assay type: physicochemical
Procedure: The solution stability of CV-8972 was evaluated in multiple media currently used to simulate dissolution and stability conditions in the various sections of the GI tract. As CV-8972 will be subject to hydrolysis as it is dissolving in the GI tract, it will be important to understand these kinetics in terms of designing instant and controlled-release formulations. HPLC methods were used to perform these assessments.
In summary, there may be some protective effect of the components of the FaSSGF, FaSSIF, and FeSSIF, particularly when compared to stability in 0.1N HCl or bicarbonate or phosphate buffer at pH 6-8. On the positive side, the fastest decomposition rate still has a T1/2 of 1.5 hours which should provide enough residence time for release and absorption in the upper GI tract.

[8] = Phase 1 first-in-human study, combined single and multiple IMB-1018972 dose results (SAD, MAD, FE, MR), plasma and urine PK; details: plasma of subjects that received IMB-1018972
[9] = aqueous solubility of CV-8972; assay type: physicochemical; details: aqueous solution, aqueous buffer
From the text: FIG. 2 is graph of the aqueous solubility of CV-8972 as a function of pH generated via dynamic methods due to instability.

[10] = Phase 1 first-in-human study, multiple-dose MR part, safety and tolerability; assay type: in vivo
[11] = in vitro stability in biological media across species; assay type: in vitro ADME
From the text: Additional and extensive in vitro stability work has been carried out across species to evaluate the impact of GI tract, liver tissues, and plasma on half-life as measured by in vitro clearance of CV-8972 in various biological media.

half-life (clinical): 3.35 to 4.27 h
Cmax higher under fed conditions relative to fasted conditions (clinical; 200 mg): approximately 42%
AUC0-t higher after the 8-hour MR formulation than after the 4-hour MR formulation (clinical): 6%
AUC0-t lower after the 8-hour MR formulation than after the 4-hour MR formulation (clinical): 26%
Tmax (clinical; 200 mg): 2 h
Cmax lower under fed conditions relative to fasted conditions [2]: approximately 36%
SMILES: COc1ccc(CN2CCN(CCO)CC2)c(OC)c1OC [CV-8814, 2-[4-[(2,3,4-trimethoxyphenyl)methyl]piperazin-1-yl]ethanol]
AUC(0-t) ([1]; female, dog, in vivo): 653 µg·h/mL
AUC(0-t) ([1]; male, dog, in vivo): 418 µg·h/mL

SMILES: COc1ccc(CN2CCN(CCOC(=O)c3cccnc3)CC2)c(OC)c1OC [CV-8972, 2-[4-[(2,3,4-trimethoxyphenyl)methyl]piperazin-1-yl]ethyl pyridine-3-carboxylate]
optimal pH for solution stability ([3]; 1 mg/mL solution): 5-5.1
1st order Kobs ([3]; pH 2.74, Water): 0.00516 h⁻¹
% lost in 25 hrs ([3]; pH 2.74, Water): 12.1%
Amt. remaining ([3]; pH 2.74, Water): 0.879 mg/mL
T5% ([3]; pH 2.74, Water): 9.9 h
T10% ([3]; pH 2.74, Water): 20.4 h
1st order Kobs ([3]; pH 3.52, 20 mM Phos): 0.00273 h⁻¹
% lost in 25 hrs ([3]; pH 3.52, 20 mM Phos): 6.6%
Amt. remaining ([3]; pH 3.52, 20 mM Phos): 0.934 mg/mL
T5% ([3]; pH 3.52, 20 mM Phos): 18.8 h
T10% ([3]; pH 3.52, 20 mM Phos): 38.6 h
1st order Kobs ([3]; pH 5.05, 20 mM Am. Acetate): 0.00105 h⁻¹
% lost in 25 hrs ([3]; pH 5.05, 20 mM Am. Acetate): 2.6%
Amt. remaining ([3]; pH 5.05, 20 mM Am. Acetate): 0.974 mg/mL
T5% ([3]; pH 5.05, 20 mM Am. Acetate): 48.7 h
T10% ([3]; pH 5.05, 20 mM Am. Acetate): 100.0 h
1st order Kobs ([3]; pH 5.64, 20 mM Phos): 0.00248 h⁻¹
% lost in 25 hrs ([3]; pH 5.64, 20 mM Phos): 6.0%
Amt. remaining ([3]; pH 5.64, 20 mM Phos): 0.94 mg/mL
T5% ([3]; pH 5.64, 20 mM Phos): 20.7 h
T10% ([3]; pH 5.64, 20 mM Phos): 42.6 h
1st order Kobs ([3]; pH 6.5, 20 mM Phos): 0.01119 h⁻¹
% lost in 25 hrs ([3]; pH 6.5, 20 mM Phos): 24.4%
Amt. remaining ([3]; pH 6.5, 20 mM Phos): 0.756 mg/mL
T5% ([3]; pH 6.5, 20 mM Phos): 4.6 h
T10% ([3]; pH 6.5, 20 mM Phos): 9.4 h
1st order Kobs ([3]; pH 6.88, 20 mM Phos): 0.02064 h⁻¹
% lost in 25 hrs ([3]; pH 6.88, 20 mM Phos): 40.3%
Amt. remaining ([3]; pH 6.88, 20 mM Phos): 0.597 mg/mL
T5% ([3]; pH 6.88, 20 mM Phos): 2.5 h
T10% ([3]; pH 6.88, 20 mM Phos): 5.1 h
hemodynamic changes and changes in the QTc-interval [4]: no findings of hemodynamic changes, nor changes in the QTc-interval
NOAEL at 28 days ([1]; dog, in vivo): 108 mg/kg/day
maximum recommended starting dose (MRSD) ([1]; dog, in vivo, 28 days): 648 mg/day
NOAEL dose for a 60-kg individual ([1]; from HED): 6480 mg
NOAEL at 28 days ([1]; in vivo, 28-day dog, oral, read-out: no observed adverse effect level (NOAEL)): 200 mg/kg/day
Papp [5]: ~29 ×10⁻⁶ cm/s
efflux (CaCo2): little evidence of efflux
TEAEs of flushing [6]: No TEAEs of flushing were reported
difference between fasted and fed administration for the number and incidence of TEAEs [6]: no clear difference
dose or dissolution time dependency of the number and incidence of TEAEs [6]: no apparent dose or dissolution time dependency
number of TEAEs considered not related to the study drug [6]: 30
number of TEAEs considered related to the study drug [6]: 7
number of TEAEs, SOC Gastrointestinal disorders [6]: 5
number of TEAEs, SOC General disorders and administration site conditions [6]: 11
number of TEAEs, SOC Nervous system disorders [6]: 8
number of drug-related TEAEs of ALT increased [6]: 1
number of drug-related TEAEs of headache [6]: 1
number of drug-related TEAEs of pollakiuria [6]: 5
severe TEAEs [6]: No severe TEAEs were reported
subjects n (%) with drug-related pollakiuria [6]: 2 (16.7%)
subjects n (%), SOC Gastrointestinal disorders [6]: 4 (33.3%)
subjects n (%), SOC General disorders and administration site conditions [6]: 7 (58.3%)
subjects n (%), SOC Nervous system disorders [6]: 7 (58.3%)
total number of TEAEs ([6]; all treatments): 37
Est Kobs (first order rate constant for hydrolysis) ([7]; 0.1 M HCl, pH 1.0, no surfactants): 0.221 h⁻¹
Est Kobs (first order rate constant for hydrolysis) ([7]; BiCarb adj (0.1 M HCl neutralized with sodium bicarbonate), pH 6-8.2, no surfactants): 0.456 h⁻¹
Est Kobs (first order rate constant for hydrolysis) ([7]; FaSSGF, pH 1.6): 0.0143 h⁻¹
Est Kobs (first order rate constant for hydrolysis) ([7]; FaSSIF, pH 6.5): 0.05124 h⁻¹
Est Kobs (first order rate constant for hydrolysis) ([7]; FeSSIF, pH 5.8): 0.00696 h⁻¹
half-life at 0.2 mg/mL ([7]; bicarbonate-adjusted medium (BiCarb adj), BiCarb adj, pH 6-8.2 (fastest decomposition rate)): 1.5 h
IMB-1018972 in plasma samples [8]: could be measured in only few plasma samples
solubility ([9]; free base, read-out: saturated base solubility / minimal solubility as the free base): 5000 to 10000 µg/mL (≈ 12 to 24.1 mM)
solubility ([9]; salt, read-out: solubility as the salt): > 100000 µg/mL
number of TEAEs considered not related to the study drug [10]: 30
number of TEAEs considered related to the study drug [10]: 10
number of TEAEs, SOC Gastrointestinal disorders [10]: 9
number of TEAEs, SOC General disorders and administration site conditions [10]: 4
number of TEAEs, SOC Musculoskeletal and connective tissue disorders [10]: 4
number of TEAEs, SOC Nervous system disorders [10]: 9
number of TEAEs, SOC Renal and urinary disorders (pollakiuria) [10]: 4
number of drug-related TEAEs of pollakiuria [10]: 4
number of drug-related TEAEs, Nervous system disorders [10]: 2
severity of TEAEs [10]: All TEAEs were of mild severity
subjects n (%) with drug-related Nervous system disorders [10]: 2 (16.7%)
subjects n (%) with drug-related pollakiuria [10]: 4 (33.3%)
subjects n (%), SOC Gastrointestinal disorders [10]: 5 (41.7%)
subjects n (%), SOC General disorders and administration site conditions [10]: 4 (33.3%)
subjects n (%), SOC Musculoskeletal and connective tissue disorders [10]: 4 (33.3%)
subjects n (%), SOC Nervous system disorders [10]: 7 (58.3%)
subjects n (%), SOC Renal and urinary disorders (pollakiuria) [10]: 4 (33.3%)
total number of TEAEs [10]: 40
subjects reporting flushing ([10]; mild severity): 2 (16.7%)
number of TEAEs of flushing ([10]; mild severity, drug-related): 2
stability in GI tract, liver tissues and plasma (in vitro clearance) [11]: relatively unstable in the GI tract

half-life (clinical): 8.11 to 9.35 h
AUC0-t higher after the 8-hour MR formulation than after the 4-hour MR formulation (clinical): 4%
AUC0-t lower after the 8-hour MR formulation than after the 4-hour MR formulation (clinical): 12%
Tmax (clinical; 50 mg): 8 h
Tmax (clinical; 200 mg): 5 h
SMILES: COc1ccc(CN2CCNCC2)c(OC)c1OC [trimetazidine, reference compound]
AUC(0-t) ([1]; female, dog, in vivo): 13.8 µg·h/mL
AUC(0-t) ([1]; male, dog, in vivo): 15 µg·h/mL
